Columns and labels:
mouse lungs = test: Immunoblot of lung lysates from mice exposed to hyperoxia; type: in vivo
Protocol: FIG. 3 illustrates the finding that T3 pretreatment increases mitochondrial biogenesis/fusion/mitophagy and decreases ER stress & apoptosis. WT mice were nebulized with T3 (40 μg/kg) for 1 day or 3 days or PTU (100 μg/kg) for 3 days prior to 72 h continuous hyperoxia exposure. Lysates were isolated and immunoblotted against antibodies as listed. ([…] was used as protein loading control.
FIG. 5 illustrates the finding that T3 pretreatment increased Mito anti-ROS potential, biogenesis and mitophagy via PINK 1. WT and PINK1-KO mice were nebulized with T3 (40 μg/kg) for 3 days prior to 72 h continuous hyperoxia exposure. Lysates were isolated and immunoblotted against antibodies as listed. β-Actin was used as protein loading control.
FIG. 7 illustrates the finding that GC-1 pretreatment decreased hyperoxia-induced Mito dysfunction, ER stress and apoptosis. WT mice were orally gavaged with GC-1 (40 μm/kg) and exposed to RA or to hyperoxia for 72 h (H3). A time course of recovery after 72 h hyperoxia is shown (R1-3, 1, 2 3 and 6 days post-hyperoxia). Lysates from mouse lungs were immunoblotted against the listed antibodies (Abs).
FIG. 8 illustrates the finding that GC-1 pretreatment increases Tie2 activation and decreases Ang2. WT mice were orally gavaged with GC-1 (40 μm/kg) and exposed to RA or to hyperoxia for 72 h (H3). A time course of recovery after 72 h hyperoxia is shown (R1-3, 1, 2 3 and 6 days post-hyperoxia). Lysates from mouse lungs were immunoblotted against the listed antibodies.

[1] = system: WT mice (hyperoxia-induced lung injury); test: Hyperoxia-induced lung injury in mice, BAL readouts (total cells, protein, LDH, Amplex Red oxidants, IL-1β, IL-6); type: in vivo
Protocol: FIG. 1 illustrates an exemplary T3 administration regime in mice. WT mice were nebulized with triiodothyronine (T3, 40 μg/kg) for 1 day or 3 days or propylthiouracil (PTU, 100 μg/kg) for 3 days prior to 72 h continuous hyperoxia exposure.
FIGS. 2A-2F illustrate the finding that T3 attenuates hyperoxia-induced lung injury, inflammation, and oxidants in WT mice. WT mice were nebulized with T3 (40 μg/kg) for 1 day or 3 days, or PTU (100 μg/kg) for 3 days prior to 72 h continuous hyperoxia exposure. Control mice were exposed to room air (RA). […] IL-1β (FIG. 2E) and IL-6 (FIG. 2F) were detected by ELISA in BALF. The values are expressed as mean±SD and analyzed by Mann-Whitney test n=6 for each group). *p<0.05, vs RA; **p<0.05, vs hyperoxia without pretreatment.
WT, PINK1−/−, and Parkin−/− mice were nebulized with T3 (40 μg/kg) for 3 days or no pretreatment prior to 72 h continuous hyperoxia exposure. […] IL-1β (FIG. 4E) and IL-6 (FIG. 4F) were detected by ELISA in BALF. The values are expressed as mean±SD and analyzed by Mann-Whitney test n=6 for each group). *p<0.05, vs WT no T3 RA; **p<0.05, vs WT no T3 hyperoxia; #p<0.05, vs corresponding RA; ##p<0.05, vs corresponding no T3 hyperoxia.
FIGS. 6A-6F illustrate the finding that GC-1 pretreatment prevents hyperoxia-induced lung injury and accelerates recovery. WT mice were orally gavaged with GC-1 (40 μm/kg) and then exposed to RA or to continuous hyperoxia for 72 h (H3). Recovery phase was initiated after 72 h hyperoxia (R1-3, 1, 2 3 and 6 days post-hyperoxia). Cells recovered from BAL were counted as BAL total cell counts (FIG. 6A). […] IL-6 (FIG. 6E) and IL-1β (FIG. 6F) was detected by ELISA in BALF. The values are expressed as mean±SD and analyzed by Mann-Whitney test (n=4 for each group). *p<0.05 versus no GC-1 RA; **p<0.05 versus no GC-1 H3; #p<0.05 versus corresponding no GC-1.

[2] = WT mice orally gavaged with GC-1 (40 μm/kg), 72 h hyperoxia and recovery, FIG. 8
[3] = WT mice nebulized with T3 (40 μg/kg) for 1 day or 3 days prior to 72 h hyperoxia, FIG. 3

| SMILES | hyperoxia-induced Mito dysfunction, ER stress and apoptosis (mouse lungs; WT mice orally gavaged with GC-1 (40 μm/kg), 72 h hyperoxia and recovery, FIG. 7) | Ang2 (mouse lungs; [2]) | Tie2 activation (mouse lungs; [2]) | hyperoxia-induced lung injury ([1]; WT mice orally gavaged with GC-1 (40 μm/kg), then 72 h continuous hyperoxia (H3), FIGS. 6A-6F) | recovery after hyperoxia ([1]; WT mice orally gavaged with GC-1 (40 μm/kg), recovery phase 1, 2 3 and 6 days post-hyperoxia) | Mito anti-ROS potential, biogenesis and mitophagy (mouse lungs; WT and PINK1-KO mice nebulized with T3 (40 μg/kg) for 3 days prior to 72 h hyperoxia, via PINK 1, FIG. 5) | ER stress & apoptosis (mouse lungs; [3]) | mitochondrial biogenesis/fusion/mitophagy (mouse lungs; [3]) | hyperoxia-induced oxidants ([1]; WT mice nebulized with T3 (40 μg/kg) for 1 day or 3 days prior to 72 h continuous hyperoxia, Amplex Red, BAL fluid) | hyperoxia-induced lung injury ([1]; WT mice nebulized with T3 (40 μg/kg) for 1 day or 3 days prior to 72 h continuous hyperoxia, FIGS. 2A-2F) | hyperoxia-induced inflammation ([1]; WT mice nebulized with T3 (40 μg/kg) for 1 day or 3 days prior to 72 h continuous hyperoxia, IL-1β, IL-6 in BALF) | mediator of T3 effects against hyperoxia-induced lung injury ([1]; WT, PINK1−/− and Parkin−/− mice nebulized with T3 (40 μg/kg) for 3 days prior to 72 h hyperoxia, FIGS. 4A-4F) |
| --- | --- | --- | --- | --- | --- | --- | --- | --- | --- | --- | --- | --- |
| Cc1cc(OCC(=O)O)cc(C)c1Cc1ccc(O)c(C(C)C)c1 [GC-1, 2-(4-(4-hydroxy-3-isopropylbenzyl)-3,5-dimethylphenoxy)acetic acid] | decreased | decreases | increases | prevents | accelerates | – | – | – | – | – | – | – |
| N[C@@H](Cc1cc(I)c(Oc2ccc(O)c(I)c2)c(I)c1)C(=O)O [T3, (S)-2-amino-3-[4-(4-hydroxy-3-iodophenoxy)-3,5-diiodophenyl]propanoic acid] | – | – | – | – | – | increased | decreases | increases | attenuates | attenuates | attenuates | PINK 1, not Parkin, mediates T3 effects |
